Experimental data: US11457629B2, “Heteroarylphenylaminoquinolines and analogues” (Bayer Aktiengesellschaft, priority 2017, dated 2022)

What was measured:
Septoria tritici = experiment: Example L: comparative data, Septoria tritici in vitro cell test; assay type: cell-based; conditions: rate of application 4 ppm; 7 days incubation
Protocol: Comparative Data—Septoria tritici In Vitro Cell Test Solvent: DMSOCulture medium: 14.6 g anhydrous D-glucose (VWR), 7.1 g Bacteriological Peptone (Oxoid), 1.4 g granulated Yeast Extract (Merck), QSP 1 literInoculum: spore suspension The compounds to be tested were solubilized in DMSO and the solution used to prepare the required range of concentrations. […] A spore suspension of S. tritici was prepared and diluted to the desired spore density. The tested compounds were evaluated for their ability to inhibit spore germination and mycelium growth in liquid culture assay. The compounds were added in the desired concentration to the culture medium to with spores. […] Inhibition of fungal growth was determined by comparing the absorbance values in wells containing the tested compound with the absorbance in control wells without tested compound.

[1] = Log P by HPLC on reversed phase columns, method [a] (acidic range, 0.1% formic acid); conditions: HPLC on reversed phase columns, method [a]: acidic range
Protocol: In the following, measurement of Log P values was performed according to EEC directive 79/831 Annex V.A8 by HPLC (High Performance Liquid Chromatography) on reversed phase columns with the following methods: • ^[a]
If more than one Log P value is available within the same method, all the values are given and separated by “+”.
Calibration was done with straight-chain alkan2-ones (with 3 to 16 carbon atoms) with known Log P values (measurement of Log P values using retention times with linear interpolation between successive alkanones).

Pyricularia oryzae = experiment: microbe, parasite or virus in culture; assay type: cell-based; conditions: 120 h, read-out: efficacy (inhibition of fungal growth)
Leptnosphaeria nodorum = experiment: Example D: Leptnosphaeria nodorum in vitro cell test; assay type: cell-based; conditions: 144 h, read-out: efficacy (inhibition of fungal growth)
[2] = system: Colletotrichum lindemuthianum; experiment: Example K: comparative data, in vivo preventive test on Colletotrichum lindemuthianum (antrachnose on bean); conditions: rate of application 500 ppm, evaluated 6 days after inoculation

| SMILES | Efficacy in % (Septoria tritici) | Efficacy in % [2] | also measured |
| --- | --- | --- | --- |
| CC(C)(O)c1ccnn1-c1ccccc1Nc1cnc2ccccc2c1 [Example I-063] | 96% |  | chromatographic logP ([1]; logP): 1.79 |
| CC(C)n1ccc(-c2c(F)cccc2Nc2cnc3ccccc3c2)n1 [Example I-027] |  | 65% | inhibition at 20 ppm (Pyricularia oryzae): 90 to 100%; inhibition at 20 ppm (Leptnosphaeria nodorum): 80 to 89%; logP [1]: 4.05 ^[a] |
| CC(C)(O)c1ccnn1-c1ccccc1Oc1cnc2ccccc2c1 [reference compound] | 0% |  |  |
| CC(C)n1ccc(-c2c(F)cccc2Oc2cnc3ccccc3c2)n1 [drawing 54, reference compound] |  | 0% |  |
